ChEMBL document CHEMBL3608256, “Strongylophorines, new protein tyrosine phosphatase 1B inhibitors, from the marine sponge Strongylophora strongilata collected at Iriomote Island” (Bioorg Med Chem Lett, 2015)

Molecular target: T1, Tyrosine-protein phosphatase non-receptor type 1 (Homo sapiens, UniProt P18031)
T1 sequence (P18031 whole entry): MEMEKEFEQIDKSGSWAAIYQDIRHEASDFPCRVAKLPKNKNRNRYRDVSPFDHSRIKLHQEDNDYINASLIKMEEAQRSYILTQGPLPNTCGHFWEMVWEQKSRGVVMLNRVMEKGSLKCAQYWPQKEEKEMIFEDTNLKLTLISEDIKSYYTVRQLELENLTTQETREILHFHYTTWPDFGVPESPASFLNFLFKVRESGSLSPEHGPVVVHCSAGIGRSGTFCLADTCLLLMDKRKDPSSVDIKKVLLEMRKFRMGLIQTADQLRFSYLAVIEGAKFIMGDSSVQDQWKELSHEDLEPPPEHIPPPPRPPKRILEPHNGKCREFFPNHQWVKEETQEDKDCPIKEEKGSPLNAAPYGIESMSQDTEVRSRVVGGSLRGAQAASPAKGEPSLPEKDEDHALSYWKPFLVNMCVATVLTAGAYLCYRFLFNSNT
Assay: Inhibition of PTP1B (unknown origin) pre-incubated for 10 mins before addition of p-nitrophenyl phosphate substrate and measured 30 mins post substrate addition

Structure (SMILES)	IC50 [µM]
CCO[C@H]1OC[C@]23CCC[C@]1(C)[C@@H]2CC[C@]1(C)[C@@H]3CC[C@](C)(O)[C@H]1Cc1cc(O)ccc1O	8.7
CO[C@H]1OC[C@]23CCC[C@]1(C)[C@@H]2CC[C@]1(C)[C@@H]3CC[C@]2(C)Oc3ccccc3C[C@@H]12	8.5
C[C@]12CCC[C@@]3(CO[C@@H]1O)[C@H]2CC[C@]1(C)[C@@H]3CC[C@]2(C)Oc3ccc(O)cc3C[C@@H]12	11.9
C[C@]1(CO)CCC[C@@]2(CO)[C@H]1CC[C@]1(C)[C@@H]2CC[C@]2(C)Oc3ccc(O)cc3C[C@@H]12	14.8
C[C@]12CCC[C@](C)(C(=O)O)[C@@H]1CC[C@]1(C)[C@@H]2CC[C@]2(C)Oc3ccc(O)cc3C[C@@H]12 [Strongylophorin-3]	9
C[C@@]12CC[C@@H]3[C@]4(CCC[C@@]3(C)C(=O)OC4)[C@H]1CC[C@]1(C)Oc3ccc(O)cc3C[C@@H]21 [strongylophorine-2]	> 24.4
C[C@@]12CC[C@@H]3[C@]4(CCC[C@]3(C)C(=O)OC4)[C@H]1CC[C@](C)(O)[C@H]2Cc1cc(O)ccc1O [strongylophorine-8]	21.2
